Common to all, as to assay type: cell-based
One test concerns HRT-18 (colon). Briefly: CellTiter GLO viability assay, HRT-18. The following applies: Homo sapiens, 144 h, read-out: IC50 (μM) incubation time 144 h. On the procedure: (§1) The CellTiter-Glo Luminescent Cell Viability Assay (Promega) is a homogeneous method of determining the number of viable cells in culture. It is based on quantification of ATP, indicating the presence of metabolically active cells.
(§2) Cells were seeded on day 1 at cell numbers that assure assay linearity and optimal signal intensity. After incubation for 3 h in humidified chambers at 37° C./5% CO2 compounds/DMSO were added at different concentrations. […] Cells treated with the compound vehicle DMSO were used as positive controls and cells treated with 10 μM Staurosporine served as negative controls. […] Thereon, mixture and assay plates were equilibrated at room temperature for 20 min. Equal volumes of the reagent-medium-mixture was added to the volume of culture medium present in each well.
(§3) The plates were mixed at ˜200 rpm for 2 minutes on an orbital shaker. The microplates were then incubated at room temperature for 10 minutes for stabilization of the luminescent signal. Following incubation the luminescence is recorded on a Victor microplate reader (Perkin Elmer) using 200 ms integration time. The data were then analyzed with Excel using the XLFIT Plugin (dose response Fit 205) for IC50-determination. As quality control the Z′-factor was calculated from 16 positive and negative control values. Only assay results showing a Z′-factor≥0.5 were used for further analysis.

The next test has as its system SW948 (colon). Briefly: CellTiter GLO viability assay, SW948. The following applies: Homo sapiens, 144 h, read-out: IC50 (μM) incubation time 144 h. On the procedure: as §1, §2, §3
A further test has as its system HEC-59 (endometrial). Put plainly: CellTiter GLO viability assay, HEC-59. The settings on record: 144 h, read-out: IC50 (μM) incubation time 144 h. On the procedure: as §1, §2, §3
(Cellular ATP, detected with luciferase, serves as a proxy for viable cell number.)

For the next test, the system named is NCI-H1299 (lung). Briefly: CellTiter GLO viability assay, NCI-H1299. The settings on record: Homo sapiens, 144 h, read-out: IC50 (μM) incubation time 144 h. On the procedure: as §1, §2, §3
The test system of another test is SW48 (colon). Briefly: CellTiter GLO viability assay, SW48. The following applies: Homo sapiens, 144 h, read-out: IC50 (μM) incubation time 144 h. On the procedure: as §1, §2, §3
The subject of test [1] is mitochondrial transcription (7S RNA) in HeLa cells. Put plainly: Quantitative real time-PCR assay of inhibition of mitochondrial transcription (cellular qPCR assay IMT). The settings on record: Homo sapiens, 4 h compound incubation, qRT-PCR according to Example 5, activity class. In a few lines: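 HeLa cells were exposed 4 h to compound dilution series or DMSO. Mitochondrial 7S RNA, with POLRMT for nuclear transcription, was measured by TaqMan qRT-PCR, normalised to TBP. Biological triplicates were analysed by ΔΔCt and expressed as Rq % (2^-ΔΔCt).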
(In qPCR the cycle at which signal appears reflects the starting amount.)

In a further test the test system is CA-46 (lymphoma). Briefly: CellTiter GLO viability assay, CA-46. The following applies: Homo sapiens, CA46, 144 h, read-out: IC50 (μM) incubation time 144 h. On the procedure: as §1
(§4) […] After incubation for 3 h in humidified chambers at 37° C./5% CO2 compounds/DMSO were added at different concentrations. […] Cells treated with the compound vehicle DMSO were used as positive controls and cells treated with 10 μM Staurosporine served as negative controls. […] Thereon, mixture and assay plates were equilibrated at room temperature for 20 min. Equal volumes of the reagent-medium-mixture was added to the volume of culture medium present in each well.
as §3

A further test has as its system SW403 (colon). Put plainly: CellTiter GLO viability assay, SW403. The following applies: Homo sapiens, SW-403, 144 h, read-out: IC50 (μM) incubation time 144 h. On the procedure: as §1, §4, §3

The structures appear in SMILES notation.

Consider `C[C@@H](Oc1ccc2c(-c3ccc(F)cc3Cl)cc(=O)oc2c1)C(=O)N1CCC[C@H](C(=O)O)C1` [Compound 14, (3S)-1-[(2R)-2-[4-(2-chloro-4-fluoro-phenyl)-2-oxo-chromen-7-yl]oxypropanoyl]piperidine-3-carboxylic acid], for which the IC50 – broadly, the concentration that gives 50% inhibition – in the test with HRT-18 (colon) is no more than 0.1 µM; in the test on SW948 (colon), 0.1 to 1 µM; in the test with HEC-59 (endometrial), greater than 10 µM; in the test on NCI-H1299 (lung), 0.1 to 1 µM; with SW48 (colon) it was 0.1 to 1 µM; in test [1], less than 10 nM. Also, the IC50 in the test with CA-46 (lymphoma) and with SW403 (colon) was no more than 0.1 µM in each case.

(Values after patent US11111238B2, “Coumarin derivatives, processes for their preparation and uses thereof for the treatment of cancer” (Lead Discovery Center GmbH, priority 2017, dated 2021).)
